Results from patent US12538923B2, “Herbicidal compositions comprising imazethapyr” (BASF SE, priority 2024, dated 2026).

Legend:
Type in all cases: in vivo
[1] = tested on: Portulaca oleracea (POROL); assay: Post-emergence field trial, herbicidal activity on POROL; settings: growth stage 14-16, height 5-10 cm, 20 DAT, 0.5% MSO
Protocol: (§1) In the examples below, using the method of S. R. Colby (1967) “Calculating synergistic and antagonistic responses of herbicide combinations”, Weeds 15, p. 22ff., the value E, which is expected if the activity of the individual active compounds is only additive, was calculated:
(§2) [formula] • where • X=percent activity using active herbicide A at an application rate a; • Y=percent activity using active herbicide B (e.g. imazethapyr) at an application rate b; • E=expected activity (in %) by A+B at application rates a+b.
(§3) If the value found experimentally is higher than the value E calculated according to Colby, a synergistic effect is present.
(§4) On field test sites, natural weed infestation or seeded weeds were treated post-emergence of the weeds.
(§5) In the field trials, the weeds were treated as indicated below.
(§6) In the following experiments, the herbicidal activity for the individual herbicidal compositions (solo and mixture applications) was assessed at the indicated days after treatment (DAT). The assessments for the damage on undesired weeds caused by the composition was carried out using a scale from 0 to 100%, compared to the untreated control plants. Here, 0 means no damage and 100 means complete destruction of the plants. […]

[2] = tested on: Euphorbia heterophylla (EPHHL); assay: Post-emergence field trial, herbicidal activity on EPHHL; settings: 21 DAT
Protocol: as §1, §2, §3, §4, §5
(§7) In the following experiments, the herbicidal activity for the individual herbicidal compositions (solo and mixture applications) was assessed at the indicated days after treatment (DAT). The assessments for the damage on undesired weeds caused by the composition was carried out using a scale from 0 to 100%, compared to the untreated control plants. Here, 0 means no damage and 100 means complete destruction of the plants.
(§8) Herbicide A-1 (342 g/l) and imazethapyr-ammonium were, together with addition of 0.5% MSO (methylated seed oil) as adjuvant, formulated in water as distribution medium (water volume […]) and sprayed with commercial flat fan nozzles.

Ipomoea triloba (IPOTR) = assay: Post-emergence field trial, herbicidal activity on IPOTR; settings: 21 DAT
Protocol: as §1, §2, §3, §4, §5, §7, §8

[3] = tested on: Brachiaria plantaginea (BRAPL); assay: Post-emergence field trial, herbicidal activity on BRAPL; settings: for % herbicidal activity: Table 2.5, 21 DAT, growth stage 24
Protocol: as §1, §2, §3, §4, §5, §7, §8

[4] = tested on: Amaranthus hybridus (AMACH); assay: Post-emergence field trial, herbicidal activity on AMACH
Protocol: as §1, §2, §3, §4, §5, §7
Herbicide A-1 (342 g/I) and imazethapyr-ammonium were, together with addition of 0.25 l/ha Dash® MSO Max as adjuvant, formulated in water as distribution medium (water volume 200 l/ha) and sprayed with commercial flat fan nozzles.

[5] = tested on: Amaranthus viridis (AMAVI); assay: Post-emergence field trial, herbicidal activity on AMAVI; settings: growth stage 16-18, height 10-15 cm, 20 DAT, 0.5% MSO
Protocol: as §1, §2, §3, §4, §5, §7, §8

[6] = tested on: Amaranthus cruentus (AMACR); assay: Post-emergence field trial, herbicidal activity on AMACR; settings: height 20-25 cm, 25 DAT, 0.25 l/ha Dash MSO Max
Protocol: as §1, §2, §3, §4, §5, §6

[7] = tested on: Digitaria horizontalis (DIGHO); assay: Post-emergence field trial, herbicidal activity on DIGHO; settings: Table 2.5, 21 DAT, growth stage 24
Protocol: as §1, §2, §3, §4, §5, §6

[8] = tested on: Spermacoce latifolia (BOILF); assay: Post-emergence field trial, herbicidal activity on BOILF; settings: 21 DAT
Protocol: as §1, §2, §3, §4, §5, §7, §8

Eleusine indica (ELEIN) = assay: Post-emergence field trial, herbicidal activity on ELEIN; settings: 21 DAT
Protocol: as §1, §2, §3, §4, §5, §7, §8

[9] = tested on: Digitaria insularis (DIGIN); assay: Post-emergence field trial, herbicidal activity on DIGIN; settings: Table 2.4, 21 DAT, weed height 20-40 cm
Protocol: as §1, §2, §3, §4, §5, §6

[10] = tested on: Galinsoga parviflora (GASPA); assay: Post-emergence field trial, herbicidal activity on GASPA; settings: Table 2.6, 21 DAT, weed height 15-35 cm
Protocol: as §1, §2, §3, §4, §5, §6

CCc1cnc(C2=NC(C)(C(C)C)C(=O)N2)c(C(=O)O)c1.N (stereo not drawn) [Herbicide B-2, imazethapyr-ammonium, reference compound]
% herbicidal activity B-2 ([1]; B-2 100 g ai/ha solo): 30% | % herbicidal activity B-2 ([2]; EPHHL, growth stage 35, B-2 100 g ai/ha solo, 0.5% MSO): 10% | % herbicidal activity ([2]; Table 2.6, B-2 100 g ai/ha alone, weed height 15-35 cm): 0% | % herbicidal activity ([2]; Table 2.7, B-2 100 g ai/ha alone, growth stage 18-65, height 5-15 cm): 20% | % herbicidal activity B-2 (Ipomoea triloba (IPOTR); IPOTR, growth stage 35, B-2 100 g ai/ha solo, 0.5% MSO): 22% | % herbicidal activity B-2 ([3]; BRAPL, growth stage 21-25, height 10-15 cm, B-2 100 g ai/ha solo, 20 DAT, 0.5% MSO): 0% | % herbicidal activity ([3]; B-2 100 g ai/ha alone, listed as with A-1 25 g ai/ha): 0% | % herbicidal activity ([3]; B-2 100 g ai/ha alone, listed as with A-1 50 g ai/ha): 0% | % herbicidal activity B-2 ([4]; AMACH, height 20-25 cm, B-2 100 g ai/ha solo, 25 DAT, 0.25 l/ha Dash MSO Max): 7% | % herbicidal activity B-2 ([5]; B-2 100 g ai/ha solo): 22% | % herbicidal activity B-2 ([6]; B-2 100 g ai/ha solo): 58% | % herbicidal activity ([7]; B-2 100 g ai/ha alone): 0% | % herbicidal activity B-2 ([8]; BOILF, growth stage 40, B-2 100 g ai/ha solo, 0.5% MSO): 23% | % herbicidal activity B-2 (Eleusine indica (ELEIN); ELEIN, height 20-25 cm, B-2 100 g ai/ha solo, 0.5% MSO): 0% | % herbicidal activity (Eleusine indica (ELEIN); Table 2.7, B-2 100 g ai/ha alone, growth stage 35-61, height 3-5 cm): 10% | % herbicidal activity ([9]; B-2 100 g ai/ha alone): 13% | % herbicidal activity ([10]; B-2 100 g ai/ha alone): 0%

CCOC(=O)COc1ccccc1Oc1nc(-n2c(=O)cc(C(F)(F)F)n(C)c2=O)c(F)cc1Cl [Herbicide A-1, ethyl 2-[2-[[3-chloro-5-fluoro-6-[3-methyl-2,6-dioxo-4-(trifluoromethyl)pyrimidin-1-yl]-2-pyridyl]oxy]phenoxy]acetate]
% herbicidal activity A-1 ([1]; A-1 50 g ai/ha solo): 58% | % herbicidal activity A-1 ([2]; EPHHL, growth stage 35, A-1 50 g ai/ha solo, 0.5% MSO): 86% | % herbicidal activity ([2]; Table 2.6, A-1 50 g ai/ha alone, weed height 15-35 cm): 96% | % herbicidal activity ([2]; Table 2.7, A-1 25 g ai/ha alone, growth stage 18-65, height 5-15 cm): 94% | % herbicidal activity A-1 (Ipomoea triloba (IPOTR); IPOTR, growth stage 35, A-1 25 g ai/ha solo, 0.5% MSO): 61% | % herbicidal activity (Ipomoea triloba (IPOTR); Table 3.1, A-1 25 g ai/ha alone, growth stage 35): 61% | % herbicidal activity A-1 ([3]; BRAPL, growth stage 21-25, height 10-15 cm, A-1 50 g ai/ha solo, 20 DAT, 0.5% MSO): 73% | % herbicidal activity ([3]; A-1 25 g ai/ha alone): 83% | % herbicidal activity ([3]; A-1 50 g ai/ha alone): 93% | % herbicidal activity A-1 ([4]; AMACH, height 20-25 cm, A-1 25 g ai/ha solo, 25 DAT, 0.25 l/ha Dash MSO Max): 91% | % herbicidal activity ([4]; Table 3.1, 21 DAT, A-1 50 g ai/ha alone, growth stage 35): 85% | % herbicidal activity A-1 ([5]; A-1 25 g ai/ha solo): 69% | % herbicidal activity A-1 ([5]; A-1 50 g ai/ha solo): 84% | % herbicidal activity A-1 ([6]; A-1 25 g ai/ha solo): 93% | % herbicidal activity ([7]; A-1 50 g ai/ha alone): 50% | % herbicidal activity A-1 ([8]; BOILF, growth stage 40, A-1 25 g ai/ha solo, 0.5% MSO): 81% | % herbicidal activity ([8]; Table 3.1, A-1 25 g ai/ha alone, growth stage 40): 81% | % herbicidal activity A-1 (Eleusine indica (ELEIN); ELEIN, height 20-25 cm, A-1 25 g ai/ha solo, 0.5% MSO): 45% | % herbicidal activity (Eleusine indica (ELEIN); Table 2.7, A-1 50 g ai/ha alone, growth stage 35-61, height 3-5 cm): 87% | % herbicidal activity (Eleusine indica (ELEIN); Table 3.2, A-1 50 g ai/ha alone, weed height 20-25 cm): 55% | % herbicidal activity ([9]; A-1 50 g ai/ha alone): 38% | % herbicidal activity ([10]; A-1 50 g ai/ha alone): 92%
